Legend:
[1] = test system: Tat transactivation activity; assay: Transactivation assay (luciferase) in HeLa-CD4-LTR-Luc cells transfected with FLAG-Tat; assay type: cell-based, HIV-1; settings: 25 nM, 48 h
Method: Supplementary file : FIG S9 Tat-TAR interaction blocked by dCA in HeLa-CD4-LTR-Luc cells. (A) Transactivation assays. HeLa-CD4-LTR-Luc cells, transfected with Tat or Tat Mut, were incubated with the indicated compounds (dCA and raltegravir [“Ralt.”], 25 nM) or DMSO. Forty-eight hours later, cells were lysed and cross-linked, and luciferase activity relative to the Bradford assay or ChIP TAR RNA (Fig. 6D) was determined. Data are the mean ± SD from n = 3 independent experiments. (B) Western blot of the amount of FLAG-Tat bound to FLAG-tagged beads after elution of the samples for ChIP TAR RNA, as control input. The input of FLAG-Tat and GAPDH as a loading control. Data are representative of n = 3 independent experiments. Statistical significance was determined using one-way ANOVA with post hoc Tukey’s test, comparing DMSO to the other conditions. ***, P < 0.0001. Download FIG S9, PDF file, 0.2 MB.
Chromatin was immunoprecipitated with an anti-FLAG antibody, and qRT-PCR was performed to detect the presence of chromatin-coding TAR (Fig. 6D).
Chromatin immunoprecipitation assay (CHIP). HeLa-CD4-LTR-Luc cells (4×10^6) were transfected with different constructs (PGK-FLAG Tat and PGK-FLAG Tat Mut). […] The relative proportions of co-immunoprecipitated DNA were determined on the basis of the threshold cycle for qRT-PCR. […]

[2] = test system: NL4-3 strain in CDK8/CDK19 knockdown cells; assay: NL4-3 infection of CDK8/CDK19 knockdown HeLa CD4 cells; assay type: cell-based, HIV-1; settings: dCA 200 nM, CDK8, CDK19 or CDK8/CDK19 knockdown; viral mRNA and p24
Method: The only other known ligand for dCA is CDK8. […] As such, virus-like particles (VLPs) expressing short hairpin RNAs (shRNAs) against CDK8, CDK19, CDK8/CDK19, or the shRNA control were transduced into HeLa CD4 cells. Stabilization of the knockdown was performed by puromycin selection of the populations over a 2-week period. Both RT-qPCR and Western blotting confirmed successful knockdown of CDK8/CDK19 proteins (Fig. 4A and B). These cells were then infected with NL4-3 and treated or not with dCA, and production of viral RNA and p24 in the supernatant were assessed 72 hours later. […]
HeLa CD4 cells were transduced with VLPs expressing shRNAs against CDK8, CDK19, or both and puromycin selected to stabilize knockdown (KD). […], mRNA, DNA, and p24 capsid in supernatant were collected and measured. (A and B) CDK8 mRNA and CDK19 mRNA expression was assessed by qRT-PCR and normalized to GAPDH mRNA. […] (C) Protein expression of CDK8 and CDK19 was analyzed 72 hours postinfection by Western blotting. […] (D) Viral mRNA production measured by qRT-PCR using primers against the Nef region was measured as a function of total integrated proviral DNA. […] Statistical significance was determined using one-way ANOVA with post hoc Tukey’s test. ns, not significant; ns^a, DMSO KD CDK19 versus dCA KD CDK19. *, P < 0.01; ***, P < 0.0001; **, P < 0.001. […]

[3] = in vivo; cited from earlier work

In the case of CN(C)C1CC23CCC4(O2)C(=CCC2(C)C(c5ccc6ccncc6c5)=CCC24)C=C3C(O)C1O (stereo not drawn) [dCA, didehydro-cortistatin A], the “Tat transactivation activity (luciferase), transfected FLAG-Tat” value [1] is listed as “inhibited Tat transactivation activity”, the “dependence of anti-HIV activity on CDK8” value [2] is listed as “does not mediate its anti-HIV activity through CDK8 inhibition” and the “penetration of viral sanctuaries” value [3] is listed as “penetrates viral sanctuaries such as the brain”.

From publication PMC6368365, “Didehydro-Cortistatin A Inhibits HIV-1 by Specifically Binding to the Unstructured Basic Region of Tat” (mBio, 2019)
